# Measurements as given in ChEMBL document CHEMBL5523684, “Development of a tetrahydroindazolone-based HDAC6 inhibitor with in-vivo anti-arthritic activity” (Bioorg Med Chem, 2024).
# Columns and labels:
# Histone deacetylase 5 = Histone deacetylase 5 (Homo sapiens, UniProt Q9UQL6); assay: Inhibition of human recombinant HDAC5 using Boc-Lys(tri-fluoroacetyl)-AMC as substrate by fluorescence based analysis
# [1] = Cmax in mouse at 50 mg/kg, po; format: ADME, organism-based; conditions: in vivo
# [2] = AUClast in mouse at 50 mg/kg, po; format: ADME, organism-based; conditions: in vivo
# [3] = Bioavailability in dog at 0.5 mg/kg, iv; format: ADME, organism-based, Canis lupus familiaris; conditions: in vivo
# [4] = Half life in monkey at 0.5 mg/kg, iv; format: ADME, organism-based, Macaca mulatta; conditions: rhesus monkey, in vivo
# [5] = C0 in monkey at 0.5 mg/kg, iv; format: ADME, organism-based, Macaca mulatta; conditions: rhesus monkey, in vivo
# [6] = Cmax in monkey at 10 mg/kg, po; format: ADME, organism-based, Macaca mulatta; conditions: rhesus monkey, in vivo
# Mus musculus = assay: Antiarthritic activity against collagen-induced arthritis DBA1J mouse model assessed as improvement in arthritis symptoms at 30 mg/kg, sc measured after 21 days; format: functional; conditions: time 21 day
# Sequence of Histone deacetylase 5 (Q9UQL6 whole entry): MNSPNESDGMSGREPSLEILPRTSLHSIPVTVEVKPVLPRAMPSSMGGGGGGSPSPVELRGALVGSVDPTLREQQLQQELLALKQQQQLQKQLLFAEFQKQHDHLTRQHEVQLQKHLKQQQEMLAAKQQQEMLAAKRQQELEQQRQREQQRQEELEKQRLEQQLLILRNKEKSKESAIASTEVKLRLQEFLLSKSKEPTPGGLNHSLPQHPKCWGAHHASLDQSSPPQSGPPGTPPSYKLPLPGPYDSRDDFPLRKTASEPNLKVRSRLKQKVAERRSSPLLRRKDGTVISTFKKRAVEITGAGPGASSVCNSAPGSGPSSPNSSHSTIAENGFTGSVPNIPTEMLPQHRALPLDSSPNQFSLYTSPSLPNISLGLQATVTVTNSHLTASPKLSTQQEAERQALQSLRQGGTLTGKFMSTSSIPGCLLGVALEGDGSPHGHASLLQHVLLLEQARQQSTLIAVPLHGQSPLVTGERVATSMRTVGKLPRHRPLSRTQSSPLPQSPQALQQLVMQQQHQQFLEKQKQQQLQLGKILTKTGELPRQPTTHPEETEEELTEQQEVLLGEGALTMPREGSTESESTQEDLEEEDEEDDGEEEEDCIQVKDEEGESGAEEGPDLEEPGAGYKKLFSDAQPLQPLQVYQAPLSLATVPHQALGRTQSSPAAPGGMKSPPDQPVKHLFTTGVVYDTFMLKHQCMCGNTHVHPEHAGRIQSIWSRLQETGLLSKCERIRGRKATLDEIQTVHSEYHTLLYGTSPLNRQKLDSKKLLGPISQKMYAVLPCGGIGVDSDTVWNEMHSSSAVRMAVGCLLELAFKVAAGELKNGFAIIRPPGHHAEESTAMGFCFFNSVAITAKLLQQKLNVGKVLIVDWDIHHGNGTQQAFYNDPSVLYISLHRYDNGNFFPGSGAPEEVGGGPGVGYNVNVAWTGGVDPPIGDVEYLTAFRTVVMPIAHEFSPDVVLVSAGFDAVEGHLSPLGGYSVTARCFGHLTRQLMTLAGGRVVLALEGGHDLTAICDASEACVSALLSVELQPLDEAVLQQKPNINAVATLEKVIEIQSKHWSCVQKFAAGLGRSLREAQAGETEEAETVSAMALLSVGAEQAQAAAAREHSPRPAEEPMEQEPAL
Cmax [1] [ng/mL],AUC(0-t) [2] [ng·h/mL],bioavailability [3] [%],half-life [4] [min],C0 [5] [ng/mL],Cmax [6] [ng/mL],Structure (SMILES),IC50 (Histone deacetylase 5) [µM],Activity (Mus musculus) [%]
–,–,–,–,–,–,O=C(NO)c1ccc(Cn2c3c(c4ccccc42)C(=O)CCC3)cc1,> 20,–
2080,1140,25.1,18.6,1040,137,CC1(C)CC(=O)c2c(C(F)(F)F)nn(Cc3ccc(C(=O)NO)cc3)c2C1,–,65
